Reference: publication PMC6857051, “Proliferative regulation of alveolar epithelial type 2 progenitor cells by human Scnn1d gene” (Theranostics, 2019)

Columns and labels:
δ802αβγ-ENaC = biological target: T1, δ802αβγ-ENaC (Homo sapiens, UniProt P51168+P51170); assay: Two-electrode voltage clamp of δ802αβγ-ENaC expressed in Xenopus oocytes; assay type: cell-based; settings: oocytes pre-treated, currents at -100 mV, n=5, Figure 3D
T1 construct: We characterized full-length human δ802-ENaC expressed in both Xenopus oocytes and humanized transgenic mice; expressed in transfected cells; host or cells: Xenopus laevis oocytes injected with cRNA (pGEM HE vector)
T1 sequence (P51168 1-640): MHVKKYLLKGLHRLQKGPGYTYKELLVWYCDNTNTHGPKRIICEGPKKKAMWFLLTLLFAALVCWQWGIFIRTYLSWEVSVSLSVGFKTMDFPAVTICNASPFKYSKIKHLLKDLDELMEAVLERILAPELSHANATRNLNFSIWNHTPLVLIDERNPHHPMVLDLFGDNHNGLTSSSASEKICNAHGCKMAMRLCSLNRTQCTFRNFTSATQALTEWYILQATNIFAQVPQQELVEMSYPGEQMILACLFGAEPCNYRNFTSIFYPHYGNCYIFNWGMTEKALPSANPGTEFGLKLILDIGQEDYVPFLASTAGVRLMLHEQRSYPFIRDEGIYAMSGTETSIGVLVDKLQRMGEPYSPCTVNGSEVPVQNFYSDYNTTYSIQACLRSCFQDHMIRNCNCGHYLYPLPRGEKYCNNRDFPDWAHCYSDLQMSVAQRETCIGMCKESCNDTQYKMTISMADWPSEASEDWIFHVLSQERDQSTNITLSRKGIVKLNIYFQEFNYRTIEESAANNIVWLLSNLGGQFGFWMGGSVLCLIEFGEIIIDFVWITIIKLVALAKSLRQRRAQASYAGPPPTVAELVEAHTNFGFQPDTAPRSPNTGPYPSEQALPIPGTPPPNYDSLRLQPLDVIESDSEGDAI
T1 sequence (P51170 1-649): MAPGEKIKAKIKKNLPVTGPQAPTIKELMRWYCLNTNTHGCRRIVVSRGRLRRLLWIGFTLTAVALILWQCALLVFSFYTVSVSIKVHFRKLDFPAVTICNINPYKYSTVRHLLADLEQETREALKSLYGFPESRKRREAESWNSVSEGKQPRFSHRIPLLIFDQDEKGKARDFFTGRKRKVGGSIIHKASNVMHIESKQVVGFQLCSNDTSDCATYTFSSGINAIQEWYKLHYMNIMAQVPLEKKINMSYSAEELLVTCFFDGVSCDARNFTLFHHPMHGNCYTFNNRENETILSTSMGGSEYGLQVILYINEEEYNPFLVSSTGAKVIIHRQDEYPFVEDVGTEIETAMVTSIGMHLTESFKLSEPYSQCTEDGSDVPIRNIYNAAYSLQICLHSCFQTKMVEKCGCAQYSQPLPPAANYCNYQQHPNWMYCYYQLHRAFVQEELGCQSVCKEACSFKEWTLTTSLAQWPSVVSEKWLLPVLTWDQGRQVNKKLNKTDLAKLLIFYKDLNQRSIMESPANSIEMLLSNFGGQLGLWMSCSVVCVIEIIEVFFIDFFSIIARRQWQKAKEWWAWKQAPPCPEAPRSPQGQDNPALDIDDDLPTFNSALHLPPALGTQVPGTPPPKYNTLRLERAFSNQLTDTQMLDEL
Description: (§1) Cloning, in vitro transcription, and heterologous expression of δ802 ENaC and two-electrode voltage clamping assay. δ802 and other ENaC subunits were generated in human ENaC cDNAs cloned into a pGEM HE vector [4], [76]. cRNAs of human α, β, and γ ENaC were prepared as described previously. The stoichiometry of native ENaC complexes is unclear to date. Based on the studies in the last decade, several models have been proposed for αβγ ENaC channels: 1α1β1γ, 2α1β1γ, 3α3β3γ. Based on the EM structure of human αβγ ENaC [35], the currently acceptable model of human αβγ ENaC complexes is heterotrimeric (1α1β1γ). Thus we microinjected δ802:β:γ in a 1:1:1 subunit ratio. Oocytes were surgically removed from appropriately anesthetized adult female Xenopus laevis (Xenopus Express). Briefly, the ovarian tissue was removed from the frog under anesthesia by tricaine-S (Western Chemicals) through a small incision in the lower abdomen. Ovarian lobes were removed and digested in OR-2 calcium-free medium (in mM: 82.5 NaCl, 2.5 KCl, 1.0 MgCl2, 1.0 Na2HPO4, and 10.0 HEPES, pH 7.5) with the addition of 2 mg/ml collagenase (Roche, Indianapolis). Defolliculated oocytes were injected with ENaC cRNAs into the cytosol (25 ng per oocyte in 50 nl of RNase-free water) and incubated in regular OR-2 medium at 18°C. The two-electrode voltage-clamp technique was used to record whole-cell currents 48 h post injection. Oocytes were impaled with two electrodes filled with 3M KCl, having resistance of 0.5 - 2 MΩ. A TEV-200A voltage-clamp amplifier (Dagan) was used to clamp oocytes with concomitant recording of currents. Two reference electrodes were connected to the bath. The continuously perfused bathing solution was ND-96 medium (in mM: 96.0 NaCl, 1.0 MgCl2, 1.8 CaCl2, 2.5 KCl, and 5.0 HEPES, pH 7.5). Whole-cell currents were recorded as previously reported. Experiments were controlled by pCLAMP 10.7 software (Molecular Devices), and currents at -40 mV, -100 mV, and +80 mV were continuously monitored with data recorded at intervals of 10 sec. Data were sampled at the rate of 200 Hz and filtered at 50 Hz.

human αβγ-ENaC = biological target: T2, human αβγ-ENaC (Homo sapiens, UniProt P37088+P51168+P51170); assay: Two-electrode voltage clamp of αβγ-ENaC expressed in Xenopus oocytes; assay type: cell-based; settings: oocytes pre-treated, currents at -100 mV, n=5, Figure 3D
T2 construct: expressed in transfected cells; host or cells: Xenopus laevis oocytes injected with cRNA (pGEM HE vector)
T2 sequence (P37088 1-669): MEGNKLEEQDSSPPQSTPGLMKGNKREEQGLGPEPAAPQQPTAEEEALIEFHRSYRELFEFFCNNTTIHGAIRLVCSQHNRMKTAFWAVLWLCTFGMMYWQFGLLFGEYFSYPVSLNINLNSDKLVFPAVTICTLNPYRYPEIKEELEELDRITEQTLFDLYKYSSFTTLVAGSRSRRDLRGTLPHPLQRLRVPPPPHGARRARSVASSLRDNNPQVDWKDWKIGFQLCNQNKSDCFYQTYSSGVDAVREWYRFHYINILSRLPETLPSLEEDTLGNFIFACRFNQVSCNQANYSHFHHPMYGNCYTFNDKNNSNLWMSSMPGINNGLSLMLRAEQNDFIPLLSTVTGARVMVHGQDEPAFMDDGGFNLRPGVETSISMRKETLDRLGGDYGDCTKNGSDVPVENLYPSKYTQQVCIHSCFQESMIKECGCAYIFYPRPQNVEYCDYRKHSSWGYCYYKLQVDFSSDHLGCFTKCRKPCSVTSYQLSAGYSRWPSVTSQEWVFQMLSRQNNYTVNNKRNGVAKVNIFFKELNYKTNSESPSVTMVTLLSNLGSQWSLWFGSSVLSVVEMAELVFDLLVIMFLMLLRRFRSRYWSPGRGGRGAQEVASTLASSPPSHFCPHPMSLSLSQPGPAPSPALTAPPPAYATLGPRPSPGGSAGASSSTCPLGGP
T2 sequence (P51168 1-640): T1 sequence (P51168 1-640)
T2 sequence (P51170 1-649): T1 sequence (P51170 1-649)
Description: as §1

[1] = tested on: δ802- and γ-ENaC subunits; assay: Immunoblot of cleavage of tagged δ802- and γ-ENaC subunits in oocytes by serine proteases; assay type: biochemical, human; settings: 10 μg/ml, 45 minutes at room temperature
Description: Figure 3 Activation of δ802-containing ENaC channels by serine proteases. (A) Activation of δ802βγ ENaC expressed in Xenopus oocytes by two-chain urokinase plasminogen activator (tc-uPA). ENaC activity was measured at the membrane potential of -100 mV at defined time points post incubation with 10 μg/ml tc-uPA. n = 9-15. mean ± s.e.m. * P<0.05 vs data at the zero minute (min). (B) Time course of stimulatory effects of plasmin on δ802βγ-ENaC activity. n=12. * P<0.05. (C) Identification of subunit responsible for plasmin activation. Fold of amiloride-sensitive current (ASI) of ENaC-associated current in the presence of plasmin over that in the absence of plasmin was computed for oocytes expressing δ802+β+γ (δβγ), δ802 alone (δ), δ802+β(δβ), and δ802+γ (δγ). n = 12-15. * P<0.05. (D) Inhibitory effects of α-13 peptide on δ802αβγ- (δαβγ) and αβγ-ENaC activity post treatment of plasmin and aprotinin. Currents (I) at -100 mV were compared in the absence of amiloride (basal, open bar), presence of α-13 peptide (α13, closed bar), and amiloride (amil, grey bar). n=5. * P<0.05 vs basal currents, & P < 0.05 vs those in the presence of α-13 peptide. (E) Fractions of α-13 sensitive currents in cells pre-treated with plasmin and aprotinin. n=8. Control, without pre-treatment. (F) Cleavage of V5-tagged δ802- and γ-ENaC subunits by serine proteases. NI, non-injected oocytes as negative controls for ENaC expression. Oocytes incubated with chymotrypsin (CT, 10 μg/ml), plasmin (PI, 10 μg/ml) for 45 minutes at room temperature. Cells treated with the same volume of saline (‑) were controls for serine proteases.

Substance | effect of pre-treatment on δ802αβγ-ENaC activity (δ802αβγ-ENaC) | effect of pre-treatment on αβγ-ENaC activity (human αβγ-ENaC) | cleavage of δ802 subunit [1]
aprotinin | did not alter the current amplitude significantly | did not alter the current amplitude significantly | –
chymotrypsin | – | – | Neither chymotrypsin nor plasmin nor endogenous furin cleaved the δ802 subunit
